From US20110008475A1, “USE OF AN EMULSION OF MINT OIL OR OF L-CARVONE FOR THE FUNGICIDAL TREATMENT OF FRUIT, VEGETABLES OR PLANTS” (priority 2007, published 2011)

Test system: Peronospora brassicae (cabbage mildew)
Assay: Effect of L-carvone on cabbage mildew (infected cabbages treated after inoculation)
Type: in vivo
Details: cabbages infected with Peronospora brassicae, treated rapidly after inoculation; L-carvone at a minimal concentration of 1%; 21 days; FIG. 1
Text: Cabbages were infected with Peronospora brassicae (cabbage mildew) then treated rapidly after inoculation with L-carvone or Aliette.

C=C(C)C1CC=C(C)C(=O)C1 [L-carvone, 2-methyl-5-(1-methylethenyl)-2-cyclohexen-1-one]
control of the infection by cabbage mildew: able to control the infection effectively for 21 days
